According to patent EP0908457B1, “3-(1,2-benzisothiazol- and isoxazol-5-Y1)-2,4(1H,3H)-pyrimidinedione or thione and 3-(1,2-benzisothiazol- and isoxazol-5-y1)-4(3H)-pyrimidinone or thione herbicidal agents” (BASF AKTIENGESELLSCHAFT, priority 1997, dated 1999):

What was measured:
Sagittaria pygmaea, L. [1] = assay: Preemergence weed control under flooded paddy conditions, SAGPY (Arrowhead (Pygmaea)); type: in vivo; conditions: flooded paddy; for SAGPY: preemergence weeds, herbicidal effect rating 0-9, three to four weeks after treatment; for herbicidal effect rating, SAGPY: preemergence, rated three to four weeks after treatment
Cyperus iria [2] = assay: Preemergence weed control under flooded paddy conditions, CYPIR (Rice Flatsedge); type: in vivo; conditions: flooded paddy; for CYPIR: preemergence weeds, herbicidal effect rating 0-9, three to four weeks after treatment; for herbicidal effect rating, CYPIR: preemergence, rated three to four weeks after treatment
[3] = system: Oryza sativa, (L.) Tebonnet; conditions: in vivo
[4] = system: Cyperus serotinus, Rottb.; assay: Preemergence weed control under flooded paddy conditions, CYPSE (Flatsedge); type: in vivo; conditions: for CYPSE: preemergence weeds, herbicidal effect rating 0-9, three to four weeks after treatment; for herbicidal effect rating, CYPSE: preemergence, rated three to four weeks after treatment
[5] = system: Monochoria vaginalis, Presl.; assay: Preemergence weed control under flooded paddy conditions, MOOVA (Monochoria); type: in vivo; conditions: flooded paddy; for MOOVA: preemergence weeds, herbicidal effect rating 0-9, three to four weeks after treatment; for herbicidal effect rating, MOOVA: preemergence, rated three to four weeks after treatment
[6] = system: Echinochloa oryzoides (Ard.) Fritsch.; assay: Preemergence weed control under flooded paddy conditions, ECHORC (Watergrass (Calif.)); type: in vivo; conditions: flooded paddy; for ECHORC: preemergence weeds, herbicidal effect rating 0-9, three to four weeks after treatment; for herbicidal effect rating, ECHORC: preemergence, rated three to four weeks after treatment
[7] = system: Oryza sativa, (L.) Tebonnet; assay: Rice tolerance to post-transplant applications under flooded paddy conditions (Example 187), ORYSAT (Rice, Tebonnet); conditions: rated three to four weeks after treatment; on herbicidal effect rating ORYSAT: meaning of each grade not given here
[8] = system: Cyperus serotinus, Rottb.; assay: Postemergence weed control under flooded paddy conditions, CYPSE (Flatsedge); type: in vivo; conditions: rated three to four weeks after treatment
Cyperus iria [9] = assay: Postemergence weed control under flooded paddy conditions, CYPIR (Rice Flatsedge); type: in vivo; conditions: rated three to four weeks after treatment
[10] = system: Oryza sativa, (L.) Tebonnet; assay: Rice tolerance to post-transplant applications under flooded paddy conditions (Example 188), ORYSAT (Rice, Tebonnet); conditions: rated three to four weeks after treatment
[11] = system: Echinochloa oryzoides (Ard.) Fritsch.; assay: Postemergence weed control under flooded paddy conditions, ECHORC (Watergrass (Calif.)); type: in vivo; conditions: rated three to four weeks after treatment
[12] = system: Monochoria vaginalis, Presl.; assay: Postemergence weed control under flooded paddy conditions, MOOVA (Monochoria); type: in vivo; conditions: rated three to four weeks after treatment
Sagittaria pygmaea, L. [13] = assay: Postemergence weed control under flooded paddy conditions, SAGPY (Arrowhead (Pygmaea)); type: in vivo; conditions: rated three to four weeks after treatment

COC(OC)c1nsc2ccc(-n3c(=O)cc(C(F)(F)F)n(C)c3=O)cc12 [Example 453, 1,2-Benzisothiazole-3-carboxaldehyde, 5-[3,6-dihydro-3-methyl-2,6-dioxo-4-(trifluoromethyl)-1(2H)-pyrimidinyl]-, 3-(dimethylacetal)]
SAGPY (Sagittaria pygmaea, L. [1]; 0.0320 kg/ha): 9.0
SAGPY (Sagittaria pygmaea, L. [1]; 0.0620 kg/ha): 9.0
SAGPY (Sagittaria pygmaea, L. [1]; 0.1250 kg/ha): 9.0
SAGPY (Sagittaria pygmaea, L. [1]; 0.2500 kg/ha): 9.0
CYPIR (Cyperus iria [2]; 0.0320 kg/ha): 9.0
CYPIR (Cyperus iria [2]; 0.0620 kg/ha): 9.0
CYPIR (Cyperus iria [2]; 0.1250 kg/ha): 9.0
CYPIR (Cyperus iria [2]; 0.2500 kg/ha): 9.0
ORYSAT [3]: 9.0
CYPSE ([4]; 0.0320 kg/ha): 9.0
CYPSE ([4]; 0.0620 kg/ha): 9.0
CYPSE ([4]; 0.1250 kg/ha): 9.0
CYPSE ([4]; 0.2500 kg/ha): 9.0
MOOVA ([5]; 0.0320 kg/ha): 9.0
MOOVA ([5]; 0.0620 kg/ha): 9.0
MOOVA ([5]; 0.1250 kg/ha): 9.0
MOOVA ([5]; 0.2500 kg/ha): 9.0
ECHORC ([6]; 0.0320 kg/ha): 9.0
ECHORC ([6]; 0.0620 kg/ha): 9.0
ECHORC ([6]; 0.1250 kg/ha): 9.0
ECHORC ([6]; 0.2500 kg/ha): 9.0

COc1cc2c(cc1-c1nsc3ccc(-n4c(=O)cc(C(F)(F)F)n(C)c4=O)cc13)CCC2 [Example 380, 2,4(1H,3H)-Pyrimidinedione, 3-[3-(6-methoxy-5-indanyl)-1,2-benzisothiazol-5-yl]-1-methyl-6-(trifluoromethyl)-]
herbicidal effect rating ORYSAT ([7]; Rate 0.0320 kg/ha): 2.5
herbicidal effect rating ORYSAT ([7]; Rate 0.0620 kg/ha): 4.0
herbicidal effect rating ORYSAT ([7]; Rate 0.1250 kg/ha): 5.0
herbicidal effect rating ORYSAT ([7]; Rate 0.2500 kg/ha): 6.5
herbicidal effect rating, SAGPY (Sagittaria pygmaea, L. [1]; Rate 0.0320 kg/ha): 0.0
herbicidal effect rating, SAGPY (Sagittaria pygmaea, L. [1]; Rate 0.0620 kg/ha): 0.0
herbicidal effect rating, SAGPY (Sagittaria pygmaea, L. [1]; Rate 0.1250 kg/ha): 4.0
herbicidal effect rating, SAGPY (Sagittaria pygmaea, L. [1]; Rate 0.2500 kg/ha): 9.0
herbicidal effect rating, CYPIR (Cyperus iria [2]; Rate 0.0320 kg/ha): 9.0
herbicidal effect rating, CYPIR (Cyperus iria [2]; Rate 0.0620 kg/ha): 9.0
herbicidal effect rating, CYPIR (Cyperus iria [2]; Rate 0.1250 kg/ha): 9.0
herbicidal effect rating, CYPIR (Cyperus iria [2]; Rate 0.2500 kg/ha): 9.0
herbicidal effect rating, CYPSE ([8]; Rate 0.0320 kg/ha): 0.0
herbicidal effect rating, CYPSE ([8]; Rate 0.0620 kg/ha): 2.0
herbicidal effect rating, CYPSE ([8]; Rate 0.1250 kg/ha): 2.0
herbicidal effect rating, CYPSE ([8]; Rate 0.2500 kg/ha): 8.0
herbicidal effect rating, CYPIR (Cyperus iria [9]; Rate 0.0320 kg/ha): 9.0
herbicidal effect rating, CYPIR (Cyperus iria [9]; Rate 0.0620 kg/ha): 9.0
herbicidal effect rating, CYPIR (Cyperus iria [9]; Rate 0.1250 kg/ha): 9.0
herbicidal effect rating, CYPIR (Cyperus iria [9]; Rate 0.2500 kg/ha): 9.0
herbicidal effect rating, ORYSAT (rice tolerance) ([10]; Rate 0.0320 kg/ha): 3.0
herbicidal effect rating, ORYSAT (rice tolerance) ([10]; Rate 0.0620 kg/ha): 7.0
herbicidal effect rating, ORYSAT (rice tolerance) ([10]; Rate 0.1250 kg/ha): 7.0
herbicidal effect rating, ORYSAT (rice tolerance) ([10]; Rate 0.2500 kg/ha): 7.0
herbicidal effect rating, ECHORC ([11]; Rate 0.0320 kg/ha): 7.0
herbicidal effect rating, ECHORC ([11]; Rate 0.0620 kg/ha): 8.0
herbicidal effect rating, ECHORC ([11]; Rate 0.1250 kg/ha): 9.0
herbicidal effect rating, ECHORC ([11]; Rate 0.2500 kg/ha): 9.0
herbicidal effect rating, MOOVA ([12]; Rate 0.0320 kg/ha): 9.0
herbicidal effect rating, MOOVA ([12]; Rate 0.0620 kg/ha): 9.0
herbicidal effect rating, MOOVA ([12]; Rate 0.1250 kg/ha): 9.0
herbicidal effect rating, MOOVA ([12]; Rate 0.2500 kg/ha): 9.0
herbicidal effect rating, SAGPY (Sagittaria pygmaea, L. [13]; Rate 0.0320 kg/ha): 0.0
herbicidal effect rating, SAGPY (Sagittaria pygmaea, L. [13]; Rate 0.0620 kg/ha): 0.0
herbicidal effect rating, SAGPY (Sagittaria pygmaea, L. [13]; Rate 0.1250 kg/ha): 2.0
herbicidal effect rating, SAGPY (Sagittaria pygmaea, L. [13]; Rate 0.2500 kg/ha): 8.0
herbicidal effect rating, CYPSE ([4]; Rate 0.0320 kg/ha): 3.5
herbicidal effect rating, CYPSE ([4]; Rate 0.0620 kg/ha): 3.5
herbicidal effect rating, CYPSE ([4]; Rate 0.1250 kg/ha): 8.0
herbicidal effect rating, CYPSE ([4]; Rate 0.2500 kg/ha): 8.0
herbicidal effect rating, MOOVA ([5]; Rate 0.0320 kg/ha): 9.0
herbicidal effect rating, MOOVA ([5]; Rate 0.0620 kg/ha): 9.0
herbicidal effect rating, MOOVA ([5]; Rate 0.1250 kg/ha): 9.0
herbicidal effect rating, MOOVA ([5]; Rate 0.2500 kg/ha): 9.0
herbicidal effect rating, ECHORC ([6]; Rate 0.0320 kg/ha): 9.0
herbicidal effect rating, ECHORC ([6]; Rate 0.0620 kg/ha): 9.0
herbicidal effect rating, ECHORC ([6]; Rate 0.1250 kg/ha): 9.0
herbicidal effect rating, ECHORC ([6]; Rate 0.2500 kg/ha): 9.0
